Experimental data: PubChem BioAssay (NCI)
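Step 1: Grow cells in 96-well plates. Step 2: Expose to compound for 48 hours at 5 concentrations. Step 3: Interpolate endpoints linearly; if unreached, use highest concentration. TGI is the concentration that stops growth completely.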

How the values were obtained:
Assay in all cases: growth of human tumour cells (NCI), 48 h
A498 renal = system: A498 renal
M14 melanoma = system: M14 melanoma
SW-620 colon = system: SW-620 colon
NCI-H226 lung = system: NCI-H226 lung
OVCAR-4 ovarian = system: OVCAR-4 ovarian
T-47D breast = system: T-47D breast
UACC-257 melanoma = system: UACC-257 melanoma
HT29 colon = system: HT29 colon
BT-549 breast = system: BT-549 breast
SK-MEL-28 melanoma = system: SK-MEL-28 melanoma
UACC-62 melanoma = system: UACC-62 melanoma
MDA-N = system: MDA-N
HOP-62 NSCLC = system: HOP-62 NSCLC
SK-OV-3 ovarian = system: SK-OV-3 ovarian
RPMI-8226 leukemia = system: RPMI-8226 leukemia
CAKI-1 renal = system: CAKI-1 renal
A549 NSCLC = system: A549 NSCLC
SNB-75 CNS = system: SNB-75 CNS
LOX IMVI melanoma = system: LOX IMVI melanoma
PC-3 prostate = system: PC-3 prostate
IGROV1 ovarian = system: IGROV1 ovarian
HS 578T breast = system: HS 578T breast
SNB-19 CNS = system: SNB-19 CNS
MOLT-4 leukemia = system: MOLT-4 leukemia
U251 CNS = system: U251 CNS
NCI-H23 lung = system: NCI-H23 lung
NCI-H522 lung = system: NCI-H522 lung
OVCAR-8 ovarian = system: OVCAR-8 ovarian
TK-10 renal = system: TK-10 renal
COLO 205 colon = system: COLO 205 colon
MDA-MB-435 = system: MDA-MB-435
SK-MEL-5 melanoma = system: SK-MEL-5 melanoma
SF-295 CNS = system: SF-295 CNS
SF-268 CNS = system: SF-268 CNS
HOP-92 NSCLC = system: HOP-92 NSCLC
HL-60(TB) leukemia = system: HL-60(TB) leukemia
EKVX NSCLC = system: EKVX NSCLC
UO-31 renal = system: UO-31 renal
SN12C renal = system: SN12C renal
SK-MEL-2 melanoma = system: SK-MEL-2 melanoma
HCT-15 colon = system: HCT-15 colon
786-0 renal = system: 786-0 renal
K-562 leukemia = system: K-562 leukemia
MDA-MB-231 breast = system: MDA-MB-231 breast
MCF7 breast = system: MCF7 breast
DU-145 prostate = system: DU-145 prostate
OVCAR-5 ovarian = system: OVCAR-5 ovarian
SF-539 CNS = system: SF-539 CNS
OVCAR-3 ovarian = system: OVCAR-3 ovarian
NCI/ADR-RES ovarian = system: NCI/ADR-RES ovarian
CCRF-CEM leukemia = system: CCRF-CEM leukemia
MALME-3M melanoma = system: MALME-3M melanoma
HCT-116 colon = system: HCT-116 colon
KM12 colon = system: KM12 colon
NCI-H460 lung = system: NCI-H460 lung
SR leukemia = system: SR leukemia
ACHN renal = system: ACHN renal
RXF 393 renal = system: RXF 393 renal

CCn1c2c(c3ccccc3c1=O)C(=O)c1ccccc1-2
TGI (A498 renal): > 100 µM | TGI (M14 melanoma): > 100 µM | TGI (SW-620 colon): > 100 µM | TGI (NCI-H226 lung): > 100 µM | TGI (OVCAR-4 ovarian): > 100 µM | TGI (T-47D breast): > 100 µM | TGI (UACC-257 melanoma): > 100 µM | TGI (HT29 colon): > 100 µM | TGI (BT-549 breast): > 100 µM | TGI (SK-MEL-28 melanoma): > 100 µM | TGI (UACC-62 melanoma): > 100 µM | TGI (MDA-N): > 100 µM | TGI (HOP-62 NSCLC): > 100 µM | TGI (SK-OV-3 ovarian): > 100 µM | TGI (RPMI-8226 leukemia): > 100 µM | TGI (CAKI-1 renal): > 100 µM | TGI (A549 NSCLC): > 100 µM | TGI (SNB-75 CNS): > 100 µM | TGI (LOX IMVI melanoma): > 100 µM | TGI (PC-3 prostate): > 100 µM | TGI (IGROV1 ovarian): > 100 µM | TGI (HS 578T breast): > 100 µM | TGI (SNB-19 CNS): > 100 µM | TGI (MOLT-4 leukemia): > 100 µM | TGI (U251 CNS): > 100 µM | TGI (NCI-H23 lung): > 100 µM | TGI (NCI-H522 lung): > 100 µM | TGI (OVCAR-8 ovarian): > 100 µM | TGI (TK-10 renal): > 100 µM | TGI (COLO 205 colon): > 100 µM | TGI (MDA-MB-435): > 100 µM | TGI (SK-MEL-5 melanoma): > 100 µM | TGI (SF-295 CNS): > 100 µM | TGI (SF-268 CNS): > 100 µM | TGI (HOP-92 NSCLC): > 100 µM | TGI (HL-60(TB) leukemia): > 100 µM | TGI (EKVX NSCLC): > 100 µM | TGI (UO-31 renal): > 100 µM | TGI (SN12C renal): > 100 µM | TGI (SK-MEL-2 melanoma): > 100 µM | TGI (HCT-15 colon): > 100 µM | TGI (786-0 renal): > 100 µM | TGI (K-562 leukemia): > 100 µM | TGI (MDA-MB-231 breast): > 100 µM | TGI (MCF7 breast): > 100 µM | TGI (DU-145 prostate): > 100 µM | TGI (OVCAR-5 ovarian): > 100 µM | TGI (SF-539 CNS): 39.7 µM | TGI (OVCAR-3 ovarian): > 100 µM | TGI (NCI/ADR-RES ovarian): > 100 µM | TGI (CCRF-CEM leukemia): > 100 µM | TGI (MALME-3M melanoma): > 100 µM | TGI (HCT-116 colon): > 100 µM | TGI (KM12 colon): > 100 µM

COc1ccc(C)cc1N1C(=O)C2ON(Cc3ccc(CC(N)=O)cc3)C(c3c4ccccc4c(Cl)c4ccccc34)C2C1=O (stereo unspecified)
TGI (M14 melanoma): 38.8 µM | TGI (SW-620 colon): > 100 µM | TGI (OVCAR-4 ovarian): 84.6 µM | TGI (T-47D breast): > 100 µM | TGI (UACC-257 melanoma): 33.2 µM | TGI (HT29 colon): 40.9 µM | TGI (BT-549 breast): 74.5 µM | TGI (NCI-H460 lung): 36.6 µM | TGI (SK-MEL-28 melanoma): > 100 µM | TGI (UACC-62 melanoma): 45.2 µM | TGI (MDA-N): 33 µM | TGI (HOP-62 NSCLC): 93.7 µM | TGI (SK-OV-3 ovarian): > 100 µM | TGI (CAKI-1 renal): 76.5 µM | TGI (A549 NSCLC): > 100 µM | TGI (SNB-75 CNS): 38.9 µM | TGI (LOX IMVI melanoma): 54.7 µM | TGI (SR leukemia): 48.6 µM | TGI (ACHN renal): 75 µM | TGI (PC-3 prostate): > 100 µM | TGI (IGROV1 ovarian): > 100 µM | TGI (HS 578T breast): > 100 µM | TGI (RXF 393 renal): 33.7 µM | TGI (SNB-19 CNS): > 100 µM | TGI (MOLT-4 leukemia): > 100 µM | TGI (U251 CNS): 60.4 µM | TGI (NCI-H23 lung): 96.4 µM | TGI (NCI-H522 lung): > 100 µM | TGI (OVCAR-8 ovarian): 84.6 µM | TGI (TK-10 renal): 49.5 µM | TGI (MDA-MB-435): 62.1 µM | TGI (SF-295 CNS): 69.1 µM | TGI (SF-268 CNS): 82.3 µM | TGI (HOP-92 NSCLC): > 100 µM | TGI (HL-60(TB) leukemia): > 100 µM | TGI (EKVX NSCLC): 98 µM | TGI (UO-31 renal): 48 µM | TGI (SN12C renal): 45.7 µM | TGI (SK-MEL-2 melanoma): 44.5 µM | TGI (HCT-15 colon): 73.3 µM | TGI (786-0 renal): 50.2 µM | TGI (K-562 leukemia): > 100 µM | TGI (MDA-MB-231 breast): 49 µM | TGI (MCF7 breast): > 100 µM | TGI (DU-145 prostate): 86.5 µM | TGI (OVCAR-5 ovarian): 58.5 µM | TGI (OVCAR-3 ovarian): > 100 µM | TGI (NCI/ADR-RES ovarian): 76.9 µM | TGI (CCRF-CEM leukemia): > 100 µM | TGI (MALME-3M melanoma): > 100 µM | TGI (HCT-116 colon): 32.7 µM | TGI (KM12 colon): 29.1 µM
